# Experimental data taken from patent EP0199524B1, “Platinum tramine antitumor agents” (ENGELHARD CORPORATION, priority 1985, dated 1986).
# “And” between values parts separate entries of the source, which are not always exact repeats. Equal values may be shown once.
# Tested on: S180 ascites
# Assay: Screening for anti-tumor activity against S180 ascites (S180a) in mice
# Type: in vivo, female CFW Swiss mice
# Conditions: medium H2O; for 30-Day Survivors: S180a in mice, survivors/mice in set; for %ILS: injected day 1, S180a in mice, upper limit 100%
# Description: The compounds were evaluated for anti-tumor activity against S180 ascites in female CFW Swiss mice by the following procedure: CFW mice, averaging 20g, are immediately inspected and placed in newly prepared cages. On day zero the mice are inoculated with 0.2 ml. of a freshly prepared saline suspension (0.15 M NaCl) containing 1 x 10⁷ tumor cells/ml, or a total of 2 x 10⁶ cells. This inoculum is freshly prepared using "transfer" mice which have been injected with tumor cells the previous week. This inoculum is the end-product of a series of steps which involves (1) the removal of the cells from the peritoneal cavity of the sacrificed transfer mouse, (2) alternate centrifugation-washing (2-3 times with cold saline) to remove occasional blood and other undesirable components, and finally (3) dilution (1:3) of the packed cell volume with saline (the final centrifugation being carried out at 1,000 rpm for 2 min.). A cell count is made on a 2,000-fold dilution of this 1:3 suspension by means of a Coulter Counter. A final dilution to 1 x 10⁷ cells/ml. is made based on the averaged count. On day 1, solutions of the test compounds are prepared and the mice injected, with each mouse of a set of six being injected with the same test compound at the same dose level.
# ILS values above 50% represent significant activity; those above 75% represent excellent activity.
SMILES,30-Day Survivors (Dose 5 mg/kg),30-Day Survivors (Dose 10 mg/kg),30-Day Survivors (Dose 20 mg/kg),30-Day Survivors (Dose 40 mg/kg),"%ILS (Dose 40 mg/kg, 40 mg/kg)",30-Day Survivors (Dose 80 mg/kg),30-Day Survivors (Dose 160 mg/kg),30-Day Survivors (Dose 320 mg/kg),%ILS (Dose 320 mg/kg),%ILS (Dose 10 mg/kg),%ILS (Dose 20 mg/kg),%ILS (Dose 160 mg/kg),30-Day Survivors (Dose 640 mg/kg),%ILS (Dose 640 mg/kg),%ILS (Dose 40 mg/kg),%ILS (Dose 80 mg/kg),other results
"N.N.[Cl-].[Cl][Pt+].c1ccncc1 [Example 1, Cis-Chlorodiamminepyridineplatinum(II) Chloride]",0/6,0/6,1/6 and 0/6,4/6 and 6/6,91% and 100%,0/6 and 4/6,0/6,0/7,-94%,–,–,–,–,–,–,–,"%ILS (Dose 5 mg/kg, 5 mg/kg): 19%; %ILS (Dose 20 mg/kg, 20 mg/kg): 73% and 70%; %ILS (Dose 40 mg/kg, listed as Cis-[Pt(NH₃)₂(py)Cl]Cl, 40 mg/kg): 100%"
"N.N.Oc1ccccn1.[Cl-].[Cl][Pt+] [Example 2, Cis-Chlorodiammine-2-hydroxypyridineplatinum(II) Chloride]",0/6,0/6,0/6,4/6 and 2/6,95% and 78%,4/6 and 2/6,3/6,0/6,-74%,15%,28%,64%,0/6,-77%,–,–,"%ILS (Dose 5 mg/kg): 15%; %ILS (Dose 80 mg/kg, 80 mg/kg): 91% and 80%; 30-Day Survivors (Dose 1280 mg/kg): 0/6; %ILS (Dose 1280 mg/kg): -84%"
"Cc1cccc(O)[n+]1[Pt-2]([NH3+])([NH3+])[Cl].[Cl-] (stereo not drawn) [Example 3, Cis-Chlorodiammine-6-methyl-2-hydroxypyridineplatinum(II) Chloride]",–,0/6,0/6,0/6,–,0/6,5/6,3/6,93%,-9%,-6%,93%,–,–,12%,15%,–
"[Cl-].[NH3+][Pt-2]([NH3+])([Cl])[n+]1cccc(O)c1 (stereo not drawn) [Example 4, Cis-chlorodiammine-3-hydroxypyridineplatinum(II) Chloride]",–,0/6,0/6,0/6,–,1/6,1/6,0/6,-75%,5%,10%,-8%,–,–,54%,69%,–
"Cc1cc[n+]([Pt-2]([NH3+])([NH3+])[Cl])cc1.[Cl-] (stereo not drawn) [Example 5, Cis-chlorodiammine-4-methylpyridineplatinum(II)chloride]",–,0/6,1/6,2/6,–,1/6,0/6,0/6,-91%,5%,27%,-77%,–,–,83%,66%,–
"N.N.Nc1cc[nH]c(=O)n1.[Cl-].[Cl][Pt+] [Example 6, Cis-chlorodiamminecytosineplatinum(II) chloride]",–,–,0/6,1/6,–,4/6,3/6,2/6,-16%,–,23%,68%,0/6,-74%,58%,92%,–
